Test results as given in patent US20240099214A1, “PLANT DEFENCE GENE EXPRESSION” (UPL Corporation Limited, priority 2021, published 2024).

Key:
[1] = system: Hypersensitive response assisting protein (gene 7, Solyc07g006570.2); assay: qRT-PCR expression of gene 7 in tomato leaves; type: in vivo, Tomato ecotype corbarino; parameters: key to RQ1 / RQ2 / RQ3 / RQ mean: relative expression normalized to a-tubulin housekeeping gene
Procedure: (§1) Tomato ecotype “corbarino” reported to be susceptible to TSWV infection was used in the experiment. Plants were grown in pots in a climatic chamber with a photoperiod of 16/8 hour at 25° C.
(§2) The viral strain (TSWV PV PV-0393) was utilized in the experiment. The virus was mechanically inoculated and propagated on tomato “corbarino”. The inoculum was prepared in an ice-cooled mortar grounding 1 gr of infected tomato tissue in 10 ml of Na-phosphate buffer 0.01M. The fresh prepared inoculum was stored in ice before use. Tomato plants at BBCH16 were dusted with Carborundum 600 mesh and selected leaves were rubbed with some droplets of inoculum. After 5 min. plants were sprayed with sterile water to remove the excess of inoculum and preserve the cell turgor.
(§3) Four treatments were compared: i) Mock inoculated; ii) TSWV; iii) 0.25% Laminarin; iv) 0.25% Laminarin+TSWV. In the last treatment the virus was inoculated 24 hrs after the laminarin application.
(§4) Total RNA was extracted from systemic infected tomato leaves by using the Quick-RNA Plant Kit (Zymo Research) following the manufacturer instructions. The extractions were carried out using three plants after 12 h, 24 h, 48 h, 72 h, 7 days after inoculation. Leaves were instantly frozen in liquid nitrogen after cutting to avoid any deterioration of the sample as well as any defense reaction. The RNA concentration was quantified by measuring the absorbance at 260 nm using a Nanodrop 2000 (Thermofisher). The purity of all of the RNA samples was assessed at an absorbance ratio of OD260/280 and OD260/230, while its structural integrity was checked by agarose gel electrophoresis. Only high-quality RNA with OD 260/280 and OD 260/230>2 was used for subsequent steps. Single-stranded cDNA was synthesized from 1 μg of total RNA using an iScript™ Select cDNA Synthesis Kit and random hexamers as primers (Bio-Rad, Milan, Italy), according to the manufacturer's instructions. Three biological replicates were created from the 3 leaves collected to test 15 genes. Alpha tubulin was used as reference gene.
(§5) qPCR reactions were performed with BioRad (Applied Biosystems, Foster City, CA, USA) using SYBR R Green. Each reaction was performed in 20 μl containing 10 μl of 2× Power SYBR Green PCR Master Mix (Life Technologies), 0.2-0.3 μM primers and cDNA samples diluted 1:20. Each qPCR reaction was performed in triplicate. Reactions were run using the cycling parameter described previously (Reid et al., 2006) and the qPCR data were analyzed by the Ct method (Pfaffl, 2001). In order to analyze the qPCR data, a-tubulin gene was used as housekeeping to determine the relative expression level of the other genes analyzed in this work. For the determination of qPCR efficiency of each primer pairs, a standard curve was performed using the following cDNA dilutions: 1:4, 1:16, 1:64; 1:256 and 1:1024. Every measurement was made in triplicate. The corresponding qPCR efficiencies (E) were calculated for every primer pair with the software 7300 System SDS software (Applied Biosystems, Foster City, CA, USA) according to the equation E=(10−1/slope−1)×100 (Rutledge and Stewart, 2008).
(§6) The significance of the differences between the gene expressions levels were compared by one-way ANOVA (p=0.01) and the means were separated by Tukey post-hoc test using SPSS ver.26 ([…]).

[2] = system: Nac transcription factor 29-like (gene 8, Solyc05g007770.2); assay: qRT-PCR expression of gene 8 in tomato leaves; type: in vivo, Tomato ecotype corbarino; parameters: key: relative expression normalized to a-tubulin housekeeping gene
Procedure: as §1, §2, §3, §4, §5, §6

Substance: laminarin
- RQ1 ([1]; 12 hr, Laminarin + virus): 12.106
- RQ2 ([1]; 12 hr, Laminarin + virus): 0.8295
- RQ3 ([1]; 12 hr, Laminarin + virus): 10.421
- RQ mean ([1]; 12 hr, Laminarin + virus): 10.274
- RQ1 ([1]; 12 hr, Laminarin alone): 0.9749
- RQ2 ([1]; 12 hr, Laminarin alone): 0.8446
- RQ3 ([1]; 12 hr, Laminarin alone): 0.8747
- RQ mean ([1]; 12 hr, Laminarin alone): 0.8981
- RQ1 ([1]; 24 hr, Laminarin + virus): 13.380
- RQ2 ([1]; 24 hr, Laminarin + virus): 12.897
- RQ3 ([1]; 24 hr, Laminarin + virus): 10.449
- RQ mean ([1]; 24 hr, Laminarin + virus): 12.242
- RQ1 ([1]; 24 hr, Laminarin alone): 11.623
- RQ2 ([1]; 24 hr, Laminarin alone): 12.446
- RQ3 ([1]; 24 hr, Laminarin alone): 12.085
- RQ mean ([1]; 24 hr, Laminarin alone): 12.051
- gene 7 expression compared to TSWV treatment ([1]; 48 hr, 0.25% laminarin + TSWV inoculated 24 hrs later): inverted
- gene 7 expression compared to TSWV treatment ([1]; 48 hr, 0.25% laminarin alone): inverted
- RQ1 ([1]; 48 hr, Laminarin + virus): 0.7159
- RQ2 ([1]; 48 hr, Laminarin + virus): 0.5334
- RQ3 ([1]; 48 hr, Laminarin + virus): 0.8167
- RQ mean ([1]; 48 hr, Laminarin + virus): 0.6886
- RQ1 ([1]; 48 hr, Laminarin alone): 0.7103
- RQ2 ([1]; 48 hr, Laminarin alone): 0.7130
- RQ3 ([1]; 48 hr, Laminarin alone): 0.6351
- RQ mean ([1]; 48 hr, Laminarin alone): 0.6861
- RQ1 ([1]; 72 hr, Laminarin + virus): 19.008
- RQ2 ([1]; 72 hr, Laminarin + virus): 20.416
- RQ3 ([1]; 72 hr, Laminarin + virus): 14.535
- RQ mean ([1]; 72 hr, Laminarin + virus): 17.986
- RQ1 ([1]; 72 hr, Laminarin alone): 10.549
- RQ2 ([1]; 72 hr, Laminarin alone): 0.4677
- RQ3 ([1]; 72 hr, Laminarin alone): 11.927
- RQ mean ([1]; 72 hr, Laminarin alone): 0.9051
- gene 7 overexpression compared to TSWV treatment ([1]; 72 hr, other treatments (laminarin alone, laminarin+TSWV) versus TSWV): overexpression induced by the TSWV is higher compared to the other treatments
- RQ1 ([2]; 12 hr, Laminarin + virus): 0.9892
- RQ2 ([2]; 12 hr, Laminarin + virus): 10.375
- RQ3 ([2]; 12 hr, Laminarin + virus): 10.132
- RQ mean ([2]; 12 hr, Laminarin + virus): 10.133
- RQ1 ([2]; 12 hr, Laminarin alone): 0.8695
- RQ2 ([2]; 12 hr, Laminarin alone): 0.9166
- RQ3 ([2]; 12 hr, Laminarin alone): 10.042
- RQ mean ([2]; 12 hr, Laminarin alone): 0.9301
- RQ1 ([2]; 24 hr, Laminarin + virus): 11.335
- RQ2 ([2]; 24 hr, Laminarin + virus): 11.617
- RQ3 ([2]; 24 hr, Laminarin + virus): 0.9361
- RQ mean ([2]; 24 hr, Laminarin + virus): 10.771
- RQ1 ([2]; 24 hr, Laminarin alone): 12.571
- RQ2 ([2]; 24 hr, Laminarin alone): 13.299
- RQ3 ([2]; 24 hr, Laminarin alone): 11.584
- RQ mean ([2]; 24 hr, Laminarin alone): 12.485
- RQ1 ([2]; 48 hr, Laminarin + virus): 13.157
- RQ2 ([2]; 48 hr, Laminarin + virus): 0.7588
- RQ3 ([2]; 48 hr, Laminarin + virus): 11.274
- RQ mean ([2]; 48 hr, Laminarin + virus): 10.673
- RQ1 ([2]; 48 hr, Laminarin alone): 12.258
- RQ2 ([2]; 48 hr, Laminarin alone): 0.9690
- RQ3 ([2]; 48 hr, Laminarin alone): 15.958
- RQ mean ([2]; 48 hr, Laminarin alone): 12.635
- RQ1 ([2]; 72 hr, Laminarin + virus): 48.220
- RQ2 ([2]; 72 hr, Laminarin + virus): 49.687
- RQ3 ([2]; 72 hr, Laminarin + virus): 22.018
- RQ mean ([2]; 72 hr, Laminarin + virus): 39.975
- RQ1 ([2]; 72 hr, Laminarin alone): 24.387
- RQ2 ([2]; 72 hr, Laminarin alone): 43.671
- RQ3 ([2]; 72 hr, Laminarin alone): 32.797
- RQ mean ([2]; 72 hr, Laminarin alone): 33.618
